Patent publication US20250206708A1, “AN OXAZIRIDINE PLATFORM FOR TARGETING FUNCTIONAL ALLOSTERIC METHIONINE SITES” (Novartis AG, priority 2022, published 2025)

test system: CDK4; test: Western blot of Rb phosphorylation (S780, S807/811) as cellular CDK4 activity; format: cell-based, human; settings: serum-synchronized MCF-7 cells, dose of 500 μM
Experimental: Cells were synchronized to G1 via serum starvation. Cells were plated at 50% confluency and allowed to adhere overnight in serum-containing media. The next morning, the cells were gently washed twice with HBSS, and serum-free media was added. Cells were allowed to incubate an additional […], […]. Final cell confluency should remain below 75% for optimal results.
Cells were seeded in full media at 8 e5 cells/well in a 6-well plate. They were then serum-synchronized, as outlined in Example 15, and treated with compound as described previously. Cells were monitored by eye for cell death and harvested once high-dose cells were round but not detached. Cells were transferred to ice and washed twice gently with 1 mL ice-cold PBS. 10 mL of lysis buffer was prepared by dissolved a protease-inhibitor table (Pierce; cat no. A32953) and a phosphatase-inhibitor tablet (Roche; cat no. 4906845001) in 10 mL PBS (1% Triton X-100). Cells were scraped to harvest, transferred to 1.5 mL Eppendorf tubes, and incubated at 4° C. for 30 min on a rotator. Samples were spun at 5000×g for 10 min to clarify lysate. Supernatant was transferred to a new tube and protein concentration quantified via BCA assay (Pierce; cat no. 23225). Samples were normalized to the lowest concentration using chilled lysis buffer. […]

Compound	signal from pRb antibodies (cellular CDK4 activity)
C#CCOC(=O)N1C[C@@H]2CN(C(=O)N3OC3c3ccccc3)C[C@@H]2C1 (stereo partly shown) [Compound 300]	marked decrease in signal

test system: not given; test: not given; settings: sulfimine adduct; obtained from previous report; the values are: ln(kobs), kobs in 1/h; cited from earlier work

Compound	Rate of Hydrolysis (In(kobs))
CS(C)=NC(=O)N1CCCCC1	-1.81
CS(C)=NC(=O)N1CCCC1	-0.96
CS(C)=NC(=O)NC(C)(C)C	-0.28
CS(C)=NC(=O)NCC(C)(C)C	-0.15
CC(C)CNC(=O)N=S(C)C	-0.085
CS(C)=NC(=O)NC1CCCCC1	0.032
CC(C)NC(=O)N=S(C)C	0.044
CCNC(=O)N=S(C)C	0.17
CS(C)=NC(=O)NC(c1ccccc1)c1ccccc1	0.24
CS(C)=NC(=O)NCc1ccccc1	0.29
CS(C)=NC(=O)NCC(F)(F)F	0.53
CCOC(=O)N=S(C)C	1.69
